The target of experiment [1] is T1, Protein RecA (Mycobacterium tuberculosis, UniProt P9WHJ3).
T1 sequence (P9WHJ3 whole entry): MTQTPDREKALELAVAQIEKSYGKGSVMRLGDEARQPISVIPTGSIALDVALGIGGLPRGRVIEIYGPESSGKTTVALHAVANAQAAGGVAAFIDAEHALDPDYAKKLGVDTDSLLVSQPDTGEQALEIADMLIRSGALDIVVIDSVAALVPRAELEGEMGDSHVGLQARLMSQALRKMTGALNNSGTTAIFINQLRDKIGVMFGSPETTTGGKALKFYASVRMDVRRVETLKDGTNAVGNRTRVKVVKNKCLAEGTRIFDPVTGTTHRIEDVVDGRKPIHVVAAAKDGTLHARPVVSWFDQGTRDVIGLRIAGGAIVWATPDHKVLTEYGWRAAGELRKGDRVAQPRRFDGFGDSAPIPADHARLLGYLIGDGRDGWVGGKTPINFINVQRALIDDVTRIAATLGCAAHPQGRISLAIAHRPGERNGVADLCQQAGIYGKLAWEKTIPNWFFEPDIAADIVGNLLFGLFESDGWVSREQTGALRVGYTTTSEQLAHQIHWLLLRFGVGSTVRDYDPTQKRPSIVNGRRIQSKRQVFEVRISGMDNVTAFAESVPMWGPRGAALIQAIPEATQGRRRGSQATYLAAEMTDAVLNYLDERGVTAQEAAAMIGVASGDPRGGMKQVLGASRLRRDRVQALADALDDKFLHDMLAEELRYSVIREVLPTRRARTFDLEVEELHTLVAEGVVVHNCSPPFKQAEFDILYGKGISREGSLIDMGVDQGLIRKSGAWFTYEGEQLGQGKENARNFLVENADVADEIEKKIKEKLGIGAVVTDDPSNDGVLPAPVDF
Briefly: Fluorescence Cell-Free Homogeneous Dose Retest to Identify Inhibitors of RecA-Intein Splicing Activity. [Related pubchem assays (depositor defined):AID2097, AID2223, AID489010, AID492950]. The experiment is classed as functional.

Experiment [2] deals with HEK293. Briefly: cells. The experiment is classed as functional, cell-based. As to conditions: Homo sapiens.
In experiment [3] the test system is H4. Briefly: inhibitors of control reporter signal in H4 cells – cell-based, plate reader, dry powder samples, counter-screen for prion reporter project, dose response (AID 540255). The experiment is classed as functional. The note with it: Homo sapiens. Background: The purpose of a counterscreen is to sort out artefacts and off-target activity.
Experiment [4] concerns HEK293. Briefly: cells. The experiment is classed as functional, cell-based. As to conditions: Homo sapiens. This is another data set of the same source.
For experiment [5], the target named is T2, Sentrin-specific protease 7 (Homo sapiens, UniProt Q9BQF6).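 Further: Luminescence-based dose-response confirmation of ultra-high-throughput screening hits, measuring inhibition of SENP7.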
T2 sequence (Q9BQF6 whole entry): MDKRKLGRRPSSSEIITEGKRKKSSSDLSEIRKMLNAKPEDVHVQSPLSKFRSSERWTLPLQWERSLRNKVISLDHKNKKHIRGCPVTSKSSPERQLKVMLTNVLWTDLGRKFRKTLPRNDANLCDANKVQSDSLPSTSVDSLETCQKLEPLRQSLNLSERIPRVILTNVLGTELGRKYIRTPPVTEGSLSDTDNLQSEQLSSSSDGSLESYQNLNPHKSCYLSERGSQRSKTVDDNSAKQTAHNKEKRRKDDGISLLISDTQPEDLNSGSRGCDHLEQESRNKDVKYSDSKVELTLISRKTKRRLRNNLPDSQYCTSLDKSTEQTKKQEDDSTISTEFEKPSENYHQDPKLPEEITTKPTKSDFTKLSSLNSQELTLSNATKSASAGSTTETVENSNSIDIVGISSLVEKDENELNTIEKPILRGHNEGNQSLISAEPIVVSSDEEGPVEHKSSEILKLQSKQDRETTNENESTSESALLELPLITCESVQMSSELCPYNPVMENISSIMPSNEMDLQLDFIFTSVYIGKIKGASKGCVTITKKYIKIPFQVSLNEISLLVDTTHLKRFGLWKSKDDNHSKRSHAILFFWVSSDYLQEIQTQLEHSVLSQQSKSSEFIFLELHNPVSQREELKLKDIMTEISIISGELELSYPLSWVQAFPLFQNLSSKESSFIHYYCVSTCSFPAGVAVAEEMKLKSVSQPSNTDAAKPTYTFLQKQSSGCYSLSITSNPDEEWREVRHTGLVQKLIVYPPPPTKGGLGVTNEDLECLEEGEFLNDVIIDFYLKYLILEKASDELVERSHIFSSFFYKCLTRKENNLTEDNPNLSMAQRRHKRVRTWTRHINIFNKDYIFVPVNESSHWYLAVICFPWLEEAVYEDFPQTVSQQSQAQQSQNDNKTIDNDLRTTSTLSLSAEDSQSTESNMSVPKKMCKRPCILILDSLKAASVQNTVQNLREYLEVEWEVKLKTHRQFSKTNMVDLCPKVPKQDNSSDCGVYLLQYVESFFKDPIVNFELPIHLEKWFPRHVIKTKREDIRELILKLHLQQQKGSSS
The experiment is classed as functional.

Experiment [6] deals with Streptococcus. Briefly: Group A Streptococcus viability loss, dose response, counter-screen for streptokinase expression inhibitor project, luminescence, BacTiterGlo (AID 1915).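 Further: potency for reduction of bacterial viability or growth.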 The experiment is classed as functional, organism-based.
Experiment [7] addresses SUMO E1/E2 (Homo sapiens, UniProt P63279+Q9UBE0+Q9UBT2). Briefly: SAR analysis of SUMOylation using HTRF in an in-Vitro dose response assay. [Related pubchem assays (depositor defined):AID2006, AID2011, AID2018, AID2069, AID2658]. The experiment is classed as functional. Background: In TR-FRET formats the signal depends on donor and acceptor labels being close together.
Experiment [8] addresses Serine/threonine-protein phosphatase PP1-alpha catalytic subunit (Homo sapiens, UniProt P62136). Briefly: PP1 phosphatase inhibitors, dose response, biochemical, fluorescence (AID 2394).

Activity calls are given as the source filed them. Some results are limits rather than exact numbers.

The term EC50 denotes the concentration that produces a half-maximal response. As usually defined, the IC50 is the concentration needed to halve the response being measured. By AC50 is commonly meant the midpoint of the concentration-response curve, whichever way the signal moves.

Chain of Serine/threonine-protein phosphatase PP1-alpha catalytic subunit (P62136 whole entry): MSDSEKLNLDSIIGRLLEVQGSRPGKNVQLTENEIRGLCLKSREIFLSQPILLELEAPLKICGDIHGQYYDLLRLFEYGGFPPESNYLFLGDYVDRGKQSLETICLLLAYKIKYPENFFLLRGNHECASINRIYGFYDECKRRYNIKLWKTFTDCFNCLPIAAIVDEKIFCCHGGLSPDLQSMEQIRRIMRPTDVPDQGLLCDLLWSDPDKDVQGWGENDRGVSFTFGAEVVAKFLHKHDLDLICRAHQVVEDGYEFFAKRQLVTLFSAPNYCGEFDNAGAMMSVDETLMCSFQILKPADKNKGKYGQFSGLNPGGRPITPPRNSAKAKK
Chain of SUMO E1/E2 (Q9UBE0 whole entry): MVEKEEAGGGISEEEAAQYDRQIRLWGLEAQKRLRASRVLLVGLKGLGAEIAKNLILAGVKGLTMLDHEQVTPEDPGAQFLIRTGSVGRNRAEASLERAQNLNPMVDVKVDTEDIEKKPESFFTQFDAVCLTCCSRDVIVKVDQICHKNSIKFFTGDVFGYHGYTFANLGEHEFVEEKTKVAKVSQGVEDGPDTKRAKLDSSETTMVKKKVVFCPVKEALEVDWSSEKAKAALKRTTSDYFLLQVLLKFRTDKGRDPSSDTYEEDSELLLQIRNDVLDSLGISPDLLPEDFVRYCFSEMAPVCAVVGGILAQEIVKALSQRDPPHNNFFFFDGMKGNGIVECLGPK
Chain of SUMO E1/E2 (Q9UBT2 whole entry): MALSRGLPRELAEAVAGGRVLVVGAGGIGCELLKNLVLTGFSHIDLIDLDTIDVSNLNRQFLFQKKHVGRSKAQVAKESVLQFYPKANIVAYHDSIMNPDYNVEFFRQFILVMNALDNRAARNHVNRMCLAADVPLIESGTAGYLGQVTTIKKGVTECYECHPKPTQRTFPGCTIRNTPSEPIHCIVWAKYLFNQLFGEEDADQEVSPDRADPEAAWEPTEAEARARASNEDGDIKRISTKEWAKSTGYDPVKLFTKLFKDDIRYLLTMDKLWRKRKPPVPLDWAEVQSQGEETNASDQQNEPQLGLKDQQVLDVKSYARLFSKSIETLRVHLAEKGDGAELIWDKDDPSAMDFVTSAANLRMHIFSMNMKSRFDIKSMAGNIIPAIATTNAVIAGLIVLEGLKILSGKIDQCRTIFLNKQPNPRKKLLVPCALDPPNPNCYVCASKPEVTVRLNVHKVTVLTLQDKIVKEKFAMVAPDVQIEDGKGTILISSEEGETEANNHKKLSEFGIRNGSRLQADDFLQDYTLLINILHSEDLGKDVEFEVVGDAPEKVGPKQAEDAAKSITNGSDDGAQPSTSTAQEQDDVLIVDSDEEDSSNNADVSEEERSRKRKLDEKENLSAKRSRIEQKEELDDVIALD
Chain of SUMO E1/E2 (P63279 whole entry): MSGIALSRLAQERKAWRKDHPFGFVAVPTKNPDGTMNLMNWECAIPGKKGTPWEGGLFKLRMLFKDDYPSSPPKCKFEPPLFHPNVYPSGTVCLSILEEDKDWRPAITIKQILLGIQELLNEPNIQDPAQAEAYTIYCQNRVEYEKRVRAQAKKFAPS

For the compound `O=C1/C(=N\c2cccc(O)c2)C(N2CCCCC2)=C(O)c2ccccc21`, the EC50 in experiment [1] is 0.364 µM (active).

As to `Cc1cc(/C=C2\SC(=S)N(C)C2=O)c(C)n1-c1ccc(O)cc1`, the IC50 in experiment [2] is > 20 µM (inactive); in experiment [4], 11.2 µM (active); in experiment [5], 5.42 µM (active). Also, the AC50 in experiment [3] was 0.492 µM (active). Besides, in experiment [6], the EC50 was 3.06 µM (active).

As for `COC(=O)c1cccc(-c2ccc(C(c3c(C)n[nH]c3O)c3c(C)n[nH]c3O)o2)c1`, the IC50 in experiment [7] is > 100 µM (inactive). Besides, the EC50 in experiment [1] was 0.175 µM (active).

Turning to `Cc1ccc(C(=O)NNc2cc(N3CCCC3)nc(N3CCCC3)n2)cc1`, the IC50 is 1.74 µM (active) in experiment [5] and 64 µM (not active) in experiment [8].

The record behind these values is ChEMBL document CHEMBL1201862, “PubChem BioAssay data set” (2004).
